US20020015743A1, “USE OF THE RB1, GINSENOSIDE FOR STIMULATING ELASTIN SYNTHESIS” (priority 1997, published 2002)
“And” between values parts separate entries of the source, which are not always exact repeats. Identical values can stand only once.

Tests used:
[1] = tested on: normal human fibroblasts (NHF-50 years); assay: Elastin secreted by normal human skin fibroblasts, ELISA on culture supernatants (NHF-50 years); assay type: cell-based
From the text: The cells had been obtained by the method of explants as described by M. Dumas et al. in the article entitled “in vitro biosynthesis of type I and III collagens by human dermal fibroblasts from donors of increasing ages” in Mech. Ageing Dev. 73 (1994), pages 179-187. These normal human skin fibroblasts thus obtained are sown in the wells of a multi-well culture box, in an E 199 culture medium, in which 2 millimoles per liter of L-glutamine have been added. Further, for a certain number of tests, the culture medium contains sodium ascorbate at concentrations of 15 or 25 micromoles per liter. 24 hours after sowing, certain wells receive ginsenoside Rb1 or an extract of Panax 1 to 10 μg/ml via a solution in DMSO so that the final DMSO concentration be 0.1%. […] These control cultures only receive DMSO at a final concentration of 0.1% by weight. The culture is continued for 48 h. After 48 h of culture as indicated above, the elastin secreted is determined on the supernatants of the culture, by an ELISA method derived from that used for the determination of collagen, as described by M. Dumas et al in the publication cited above, except that a commercial human anti-elastin polyclonal antibody was used instead of the human anti-collagen I and III polyclonal antibodies. A standard range made from commercial soluble elastin enables converting into nanograms of elastin the values of optical density (OD) obtained from the culture supernatants. In parallel with the determination of the elastin, a determination of the cell proteins is carried out on the cultures of fibroblasts, after removal of the supernatant, in order to bring the amount of elastin determined to a fixed amount of cell proteins. The determination is carried out by using a BCA-1 kit (Bicinchoninic acid kit, marketed by Sigma, France) after dissolution of the cell plug with 0.1 N sodium hydroxide solution. The results are expressed in nanograms of elastin secreted per microgram of cellular proteins. The activity A of stimulation, expressed in percentage, is calculated according to the following formula: [formula] […]

[2] = tested on: normal human fibroblasts (NHF-47 years); assay: Elastin secreted by normal human skin fibroblasts, ELISA on culture supernatants (NHF-47 years); assay type: cell-based; details: for Activity in % (stimulation of elastin secretion vs control): 48 h; for ng Elastin/μg prot/48 h: n=6
From the text: The cells had been obtained by the method of explants as described by M. Dumas et al. in the article entitled “in vitro biosynthesis of type I and III collagens by human dermal fibroblasts from donors of increasing ages” in Mech. Ageing Dev. 73 (1994), pages 179-187. These normal human skin fibroblasts thus obtained are sown in the wells of a multi-well culture box, in an E 199 culture medium, in which 2 millimoles per liter of L-glutamine have been added. Further, for a certain number of tests, the culture medium contains sodium ascorbate at concentrations of 15 or 25 micromoles per liter. 24 hours after sowing, certain wells receive ginsenoside Rb1 or an extract of Panax 1 to 10 μg/ml via a solution in DMSO so that the final DMSO concentration be 0.1%. […] These control cultures only receive DMSO at a final concentration of 0.1% by weight. The culture is continued for 48 h. After 48 h of culture as indicated above, the elastin secreted is determined on the supernatants of the culture, by an ELISA method derived from that used for the determination of collagen, as described by M. Dumas et al in the publication cited above, except that a commercial human anti-elastin polyclonal antibody was used instead of the human anti-collagen I and III polyclonal antibodies. A standard range made from commercial soluble elastin enables converting into nanograms of elastin the values of optical density (OD) obtained from the culture supernatants. In parallel with the determination of the elastin, a determination of the cell proteins is carried out on the cultures of fibroblasts, after removal of the supernatant, in order to bring the amount of elastin determined to a fixed amount of cell proteins. The determination is carried out by using a BCA-1 kit (Bicinchoninic acid kit, marketed by Sigma, France) after dissolution of the cell plug with 0.1 N sodium hydroxide solution. The results are expressed in nanograms of elastin secreted per microgram of cellular proteins. The activity A of stimulation, expressed in percentage, is calculated according to the following formula: [formula] The results obtained on the treated cultures (n=6) and controls (n=6) are compared with the aid of the Student t test for non-paired series. Any value of p<0.05 will indicate that a significant difference exists between the secretion of elastin of the control NHFs and those treated with the products of the invention.

fibrocytes = details: Tanaka H. et al., 1991; cited from earlier work
keratinocytes = details: Nack-in-Kim et al., J.Invest.Dermatol. 1993; cited from earlier work
[3] = product 10 μg/ml, no ascorbate, DMSO 0.1%

CC(C)=CCC[C@](C)(O[C@@H]1O[C@H](CO[C@@H]2O[C@H](CO)[C@@H](O)[C@H](O)[C@H]2O)[C@@H](O)[C@H](O)[C@H]1O)[C@H]1CC[C@]2(C)[C@@H]1[C@H](O)C[C@@H]1[C@@]3(C)CC[C@H](O[C@@H]4O[C@H](CO)[C@@H](O)[C@H](O)[C@H]4O[C@@H]4O[C@H](CO)[C@@H](O)[C@H](O)[C@H]4O)C(C)(C)[C@@H]3CC[C@]12C [G-Rb1, ginsenoside Rb1]
Activity in % (stimulation of elastin secretion vs control) ([1]; NHF-50 years, product 10 μg/ml + Asc. 25 μM, 48 h): 21% and 17% | ng Elastin/μg prot/48 h ([1]; NHF-50 years, product 10 μg/ml + Asc. 25 μM, 48 h, n=6): 26.3 + 3.7 ng Elastin/μg prot/48 h and 32 + 4.3 ng Elastin/μg prot/48 h and 28 + 2.2 ng Elastin/μg prot/48 h | synthesis of elastin by the fibroblasts (conclusion in words) ([1]; conclusion from Tables 1 to 3 (NHF-47 and NHF-50 years), stimulation augments with concentration): strongly stimulate the synthesis of elastin | Activity in % (stimulation of elastin secretion vs control) ([2]; product 10 μg/ml + Asc. 15 μM): 16% | ng Elastin/μg prot/48 h ([2]; product 10 μg/ml + Asc. 15 μM): 39.3 + 2.8 ng Elastin/μg prot/48 h | Activity in % (stimulation of elastin secretion vs control) ([2]; product 10 μg/ml + Asc. 25 μM): 10% | ng Elastin/μg prot/48 h ([2]; product 10 μg/ml + Asc. 25 μM): 38.8 + 6.8 ng Elastin/μg prot/48 h | Activity in % (stimulation of elastin secretion vs control) [2, 3]: 31% | ng Elastin/μg prot/48 h [2, 3]: 25.8 ± 2.2 ng Elastin/μg prot/48 h

CC(C)=CCC[C@](C)(O[C@@H]1O[C@H](CO[C@@H]2OC[C@H](O)[C@H](O)[C@H]2O)[C@@H](O)[C@H](O)[C@H]1O)[C@H]1CC[C@]2(C)[C@@H]1[C@H](O)C[C@@H]1[C@@]3(C)CC[C@H](O[C@@H]4O[C@H](CO)[C@@H](O)[C@H](O)[C@H]4O[C@@H]4O[C@H](CO)[C@@H](O)[C@H](O)[C@H]4O)C(C)(C)[C@@H]3CC[C@]12C [ginsenoside Rb2]
synthesis of glycosaminoglycans (GAG) by the fibrocytes (fibrocytes): effective to stimulate the synthesis of glycosaminoglycans (GAG)

ginsenoside
action on the proliferation of the keratinocytes (keratinocytes): inhibitory action
